Measurements as given in PMC3626250, “Effects of Borneol on Pharmacokinetics and Tissue Distribution of Notoginsenoside R1 and Ginsenosides Rg1 and Re in Panax notoginseng in Rabbits” (Journal of Analytical Methods in Chemistry, 2013).
Read-outs that look alike come from different tables or passages of the source. Marks after values point to notes of the source that are not given here.

Key:
[1] = Pharmacokinetics study in rabbits after oral Panax notoginseng extract with or without Borneol (plasma, SPE-HPLC-MS); format: in vivo, New Zealand rabbits; details: for Cmax / Tmax / CL/F / half-life / AUC(0-inf) / AUC(0-t): New Zealand, rabbit, plasma; for CL/F: read-out: CL/F; for half-life: read-out: t 1/2β; for AUC(0-inf) / AUC(0-t): po
Protocol: Liquid chromatography was carried out on an Agilent 1100 HPLC system with an auto sampler, a quaternary pump and a vacuum degasser (Waldoboro, Frankfurt, Germany). Operations were controlled by Agilent Chemstation 4.2 software (Littleforts, Philadelphia, USA). Separations were achieved on a reversed-phase HPLC column (Zorbax SB-C18 150 × 2.1 mm, 5.0 μm particle size). A solution of acetonitrile and water (V : V, 20 : 80) with 0.1% (V : V) ammonium formate was used as the mobile phase. The flow rate was set at 0.3 mL·min^−1 and the column temperature was 25°C. Under these conditions, NGR1, GRg1, and GRe in plasma samples were separated efficiently without any interferences.
MS^n detection was performed on an Agilent SL trap MS system (Waldoboro, Frankfurt, Germany). The ion source-dependent (electrospray ionization) conditions were the same for all analyses with a spraying voltage of −4500 V in the negative ion mode. The pressure of the nebulizing gas (nitrogen) was set at 35 p.s.i. The flow rate of the drying gas (nitrogen) was set at 7.0 L·min^−1 with the temperature of 325°C. The collision gas (He) for the MS^n mode at trap was set at flow of 4 (instrument unit). The voltage of the capillary was set at 4000 V, and its end plate offset was −500 V. Scan range was from 500 to 1500 m/z.
(§1) Frozen plasma and tissue samples were thawed in a water bath at 37°C and were then vortexed followed by centrifuging at 5000 r·min^−1 for 5 min. An aliquot of 1.0 mL of the supernatant from each sample was loaded onto C18 Bond Elute Solid phase extraction (SPE) cartridges (1000 mg, 1 cc reservoir, Varian, Harbor City, CA, USA) pretreated with 2.0 mL hexane, isopropanol, methanol, and water, sequentially. The SPE cartridges were then washed with 1.0 mL water, 20% methanol/water solution, 40% methanol/water solution, and 60% methanol/water solution, sequentially. Finally, analytes were eluted twice with 1.0 mL of 70% methanol/water solution. The eluant was evaporated to dryness under nitrogen. The residues were then reconstituted in 1.0 mL mobile phase. An aliquot of 10 μL was injected into the LC-MS system.
Eighteen rabbits were randomly divided into three groups of 6 subjects and were orally given 3.0 mL·kg^−1 normal saline, 3.0 mL·kg^−1 Panax notoginseng extract, and 3.0 mL·kg^−1 Panax notoginseng extract combined with Borneol, respectively. Plasma samples were collected in heparinized tubes from the central ear artery at 0.0, 5.0, 10.0, 20.0, 30.0, 45.0, 60.0, 75.0, 90.0, 120.0, 180.0, 300.0 and 480.0 min after dose. After each sampling, the same volume of 0.9% saline solution was injected from the ear vein to compensate the loss of blood. The plasma obtained was frozen at −70°C for storage and was processed prior to analysis with the proposed method as described in Section 2.6.
Statistical analysis of the biological data was performed using the Student's t-test. The drug analysis system 2.0 (DAS 2.0, T.C.M., Shanghai, China) was used to calculate the pharmacokinetic parameters, such as the area under curve (AUC), the maximum plasma concentration (C max), the time needed to reach the maximum plasma concentration (t max) and the half-life of absorption, and distribution and elimination (t 1/2Ka, t 1/2α, t 1/2β).

[2] = Tissue distribution study in rabbits after oral Panax notoginseng extract with or without Borneol; format: in vivo, New Zealand rabbits; details: New Zealand, rabbit; for Kp at 1 h: oral, Borneol combined with Panax notoginseng; for concentration at 0.5 h / concentration at 1 h / concentration at 3 h: po; for concentration at 3 h: 3 mL·kg^−1, 3.0 h
Protocol: as §1
One group of rabbits (n = 18) was orally administered a dose of 3.0 mL·kg^−1 Panax notoginseng extract, while another group of rabbits (n = 18) was orally given 3.0 mL·kg^−1 Panax notoginseng extract combined with Borneol. At 0.5, 1, and 3 h after administration, blood samples were collected from the central ear artery of six rabbits from each group, and the heart, liver, lung, kidney, and brain were immediately removed after animals were sacrificed by decapitation. An accurately weighed amount of tissue (1 g) was collected to be rinsed, dried, minced, and homogenized (400 r·min^−1) in normal saline (1.5 mL). All of the samples were stored at −70°C and were processed prior to analysis with the proposed method as described in Section 2.6.

[3] = oral 3.0 mL·kg^−1 Panax notoginseng extract
[4] = oral 3.0 mL·kg^−1 Panax notoginseng extract combined with Borneol

Cmax [1, 3]: 2360 ± 150 ng/mL
Tmax [1, 3]: 30 min
Cmax [1, 4]: 2870 ± 340 ng/mL
Tmax [1, 4]: 30 min
CL/F [1, 4]: 119 ± 40 mL/min/kg
half-life [1, 4]: 69.3 ± 10.7 min
CL/F [1, 3]: 123 ± 67 mL/min/kg
half-life [1, 3]: 69.3 ± 12 min
AUC(0-inf) [1, 3]: 10900 ng·h/mL
AUC(0-t) [1, 3]: 8250 ng·h/mL
AUC(0-inf) [1, 4]: 27900 ng·h/mL
AUC(0-t) [1, 4]: 9090 ng·h/mL
K 10 [1, 3]: 0.005 ± 0.001 min⁻¹
K 12 [1, 3]: 0.011 ± 0.003 min⁻¹
K 21 [1, 3]: 0.012 ± 0.003 min⁻¹
K a [1, 3]: 0.039 ± 0.004 min⁻¹
T lag [1, 3]: 0 ± 0 min
V/F [1, 3]: 24.5 ± 4.5 L/kg
t 1/2Ka [1, 3]: 17.8 ± 2.4 min
t 1/2α [1, 3]: 38.5 ± 2.5 min
α [1, 3]: 0.018 ± 0.005 min⁻¹
β [1, 3]: 0.010 ± 0.007 min⁻¹
K 10 [1, 4]: 0.003 ± 0.00 min⁻¹
K 12 [1, 4]: 0.025 ± 0.005** min^−1
K 21 [1, 4]: 0.013 ± 0.001 min⁻¹
K a [1, 4]: 0.051 ± 0.010* min^−1
T lag [1, 4]: 1.25 ± 0.34 min
V/F [1, 4]: 35.9 ± 8.7 L/kg
t 1/2Ka [1, 4]: 13.5 ± 4.6 min
t 1/2α [1, 4]: 22.3 ± 3.1 min
α [1, 4]: 0.031 ± 0.011 min⁻¹
β [1, 4]: 0.010 ± 0.001 min⁻¹
Kp at 1 h ([2]; brain, peak levels at 1.0 h, read-out: level in brain, fold higher than the plasma concentrations): 11.8
concentration at 0.5 h ([2]; brain, 3 mL·kg^−1, 0.5 h, oral Panax notoginseng with Borneol, read-out: Concentration in brain): 20600 ± 1360 ng/g
concentration at 0.5 h ([2]; brain, 3 mL·kg^−1, 0.5 h, oral Panax notoginseng, read-out: Concentration in brain): 750 ± 110 ng/g
concentration at 1 h ([2]; brain, 3 mL·kg^−1, 1.0 h, oral Panax notoginseng, read-out: Concentration in brain): 910 ± 890 ng/g
concentration at 3 h ([2]; brain, oral Panax notoginseng with Borneol, read-out: Concentration in brain): 17900 ± 2600 ng/g
concentration at 3 h ([2]; brain, oral Panax notoginseng, read-out: Concentration in brain): 570 ± 200 ng/g
concentration at 1 h ([2]; brain, 1.0 h, oral Panax notoginseng with Borneol, read-out: Concentration in brain): 25700 ± 2690 ng/g
Kp at 1 h ([2]; heart, peak levels at 1.0 h, read-out: level in heart, fold higher than the plasma concentrations): 12.4
concentration at 0.5 h ([2]; heart, 3 mL·kg^−1, 0.5 h, oral Panax notoginseng with Borneol, read-out: Concentration in heart): 22600 ± 360 ng/g
concentration at 0.5 h ([2]; heart, 3 mL·kg^−1, 0.5 h, oral Panax notoginseng, read-out: Concentration in heart): 2210 ± 760 ng/g
concentration at 1 h ([2]; heart, 3 mL·kg^−1, 1.0 h, oral Panax notoginseng, read-out: Concentration in heart): 2940 ± 240 ng/g
concentration at 3 h ([2]; heart, oral Panax notoginseng with Borneol, read-out: Concentration in heart): 19100 ± 1160 ng/g
concentration at 3 h ([2]; heart, oral Panax notoginseng, read-out: Concentration in heart): 1530 ± 450 ng/g
concentration at 1 h ([2]; heart, 1.0 h, oral Panax notoginseng with Borneol, read-out: Concentration in heart): 27000 ± 310 ng/g
Kp at 1 h ([2]; kidney, at 1.0 h, read-out: level in kidney, fold higher than the plasma concentrations): 7.77
concentration at 0.5 h ([2]; kidney, 3 mL·kg^−1, 0.5 h, oral Panax notoginseng with Borneol, read-out: Concentration in kidney): 27540 ± 170 ng/g
concentration at 0.5 h ([2]; kidney, 3 mL·kg^−1, 0.5 h, oral Panax notoginseng, read-out: Concentration in kidney): 4050 ± 260 ng/g
concentration at 1 h ([2]; kidney, 3 mL·kg^−1, 1.0 h, oral Panax notoginseng, read-out: Concentration in kidney): 3670 ± 380 ng/g
concentration at 3 h ([2]; kidney, oral Panax notoginseng with Borneol, read-out: Concentration in kidney): 10200 ± 2770 ng/g
concentration at 3 h ([2]; kidney, oral Panax notoginseng, read-out: Concentration in kidney): 3030 ± 230 ng/g
concentration at 1 h ([2]; kidney, 1.0 h, oral Panax notoginseng with Borneol, read-out: Concentration in kidney): 16900 ± 810 ng/g
Kp at 1 h ([2]; liver, peak levels at 1.0 h, read-out: level in liver, fold higher than the plasma concentrations): 27.1
concentration at 0.5 h ([2]; liver, 3 mL·kg^−1, 0.5 h, oral Panax notoginseng with Borneol, read-out: Concentration in liver): 50100 ± 1950 ng/g
concentration at 0.5 h ([2]; liver, 3 mL·kg^−1, 0.5 h, oral Panax notoginseng, read-out: Concentration in liver): 8480 ± 530 ng/g
concentration at 1 h ([2]; liver, 3 mL·kg^−1, 1.0 h, oral Panax notoginseng, read-out: Concentration in liver): 8850 ± 510 ng/g
concentration at 3 h ([2]; liver, oral Panax notoginseng with Borneol, read-out: Concentration in liver): 37800 ± 3430 ng/g
concentration at 3 h ([2]; liver, oral Panax notoginseng, read-out: Concentration in liver): 6180 ± 590 ng/g
concentration at 1 h ([2]; liver, 1.0 h, oral Panax notoginseng with Borneol, read-out: Concentration in liver): 59000 ± 3740 ng/g
Kp at 1 h ([2]; lung, peak levels at 1.0 h, read-out: level in lung, fold higher than the plasma concentrations): 8.17
concentration at 0.5 h ([2]; lung, 3 mL·kg^−1, 0.5 h, oral Panax notoginseng with Borneol, read-out: Concentration in lung): 15100 ± 3240 ng/g
concentration at 0.5 h ([2]; lung, 3 mL·kg^−1, 0.5 h, oral Panax notoginseng, read-out: Concentration in lung): 14300 ± 430 ng/g
concentration at 1 h ([2]; lung, 3 mL·kg^−1, 1.0 h, oral Panax notoginseng, read-out: Concentration in lung): 15300 ± 640 ng/g
concentration at 3 h ([2]; lung, oral Panax notoginseng with Borneol, read-out: Concentration in lung): 12300 ± 1460 ng/g
concentration at 3 h ([2]; lung, oral Panax notoginseng, read-out: Concentration in lung): 11900 ± 710 ng/g
concentration at 1 h ([2]; lung, 1.0 h, oral Panax notoginseng with Borneol, read-out: Concentration in lung): 17800 ± 1250 ng/g
concentration at 0.5 h ([2]; plasma, 3 mL·kg^−1, 0.5 h, oral Panax notoginseng, read-out: Concentration in plasma): 1970 ± 160 ng/mL
concentration at 1 h ([2]; plasma, 3 mL·kg^−1, 1.0 h, oral Panax notoginseng, read-out: Concentration in plasma): 1990 ± 60 ng/mL
concentration at 3 h ([2]; plasma, oral Panax notoginseng with Borneol, read-out: Concentration in plasma): 920 ± 10 ng/mL
concentration at 3 h ([2]; plasma, oral Panax notoginseng, read-out: Concentration in plasma): 980 ± 10 ng/mL
concentration at 0.5 h ([2]; plasma, 0.5 h, oral Panax notoginseng with Borneol, read-out: Concentration in plasma): 2870 ± 60 ng/mL
concentration at 1 h ([2]; plasma, 1.0 h, oral Panax notoginseng with Borneol, read-out: Concentration in plasma): 2180 ± 90 ng/mL
Compound: CC(C)=CCC[C@](C)(O[C@@H]1O[C@H](CO)[C@@H](O)[C@H](O)[C@H]1O)[C@H]1CC[C@]2(C)[C@@H]1[C@H](O)C[C@@H]1[C@@]3(C)CC[C@H](O)C(C)(C)[C@@H]3[C@@H](O[C@@H]3O[C@H](CO)[C@@H](O)[C@H](O)[C@H]3O)C[C@]12C [GRg1, ginsenoside Rg1]
